Measured values from US7803930B2, “Antisense modulation of apolipoprotein B-expression” (Isis Pharmaceuticals, Inc., priority 2002, dated 2010).

Key:
[1] = test system: Cynomolgous monkey apolipoprotein B mRNA; experiment: Apolipoprotein B mRNA in primary Cynomolgous monkey hepatocytes, real-time PCR; assay type: cell-based; settings: cynomolgous monkey primary hepatocytes; 10, 50, 150 or 300 nM
Method in brief: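 Primary cynomolgus hepatocytes treated with antisense oligonucleotides at 10, 50, 150 or 300 nM (some sets 10–150 nM) for 24 or 48 h, depending on the set. mRNA quantified by real-time PCR using human apoB and GAPDH primers/probes. Values are percent inhibition normalized to untreated cells, averaged over 2–6 experiments.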

apolipoprotein B protein [2] = experiment: Apolipoprotein B protein in primary Cynomolgous monkey hepatocytes, immunoblot; assay type: cell-based
Description: Additionally, protein was isolated from oligonucleotide-treated primary Cynomolgous monkey hepatocytes and subjected to immunoblot analysis to further assess apolipoprotein B protein expression. Immunoblotting was performed as described herein, using an antibody to human apolipoprotein B protein (US Biologicals, Swampscott, Mass.).

apolipoprotein B protein [3] = experiment: Apolipoprotein B protein secreted from primary Cynomolgous monkey hepatocytes, ELISA; assay type: cell-based; settings: primary Cynomolgous hepatocytes; 150 and 300 nM
Description: Apolipoprotein B protein secreted from primary Cynomolgous hepatocytes treated with 150 and 300 nM of oligonucleotide was measured by ELISA using an apolipoprotein B protein specific kit (ALerCHEK Inc., Portland, Me.). Each result represents the average of 3 experiments.
Apolipoprotein B protein secreted primary Cynomolgous hepatocytes treated with 50 and 150 nM of ISIS 315089 and ISIS 281625 was measured by ELISA using an apolipoprotein B protein specific kit (ALerCHEK Inc., Portland, Me.). Each result represents the average of 3 experiments.
Apolipoprotein B protein secreted from primary Cynomolgous hepatocytes treated with 50 and 150 nM of ISIS 271009 and ISIS 301027 was measured by ELISA using an apolipoprotein B protein specific kit (ALerCHEK Inc., Portland, Me.). Each result represents the average of 3 experiments.

apolipoprotein B mRNA [4] = experiment: High fat fed mice, time-dependent effects and after cessation of dosing (Example 51): apolipoprotein B mRNA in liver; assay type: in vivo, mouse; settings: liver, 50 mg/kg i.p. twice weekly
Description: (§1) In a further embodiment of the invention, the inhibition of apolipoprotein B mRNA in mice was compared to liver oligonucleotide concentration, total cholesterol, LDL-cholesterol and HDL-cholesterol. Male C57Bl/6 mice receiving a high fat diet (60% fat) were evaluated over the course of 6 weeks for the effects of treatment with twice weekly intraperitoneal injections of 50 mg/kg ISIS 147764 (SEQ ID NO: 109) or 50 mg/kg of the control oligonucleotide ISIS 141923 (SEQ ID NO: 858). Control animals received saline treatment. Animals were sacrificed after 2 days, 1, 2, 4 and 6 weeks of treatment. Each treatment group at each time point consisted of 8 mice.
(§2) Target expression in liver was measured by real-time PCR as described by other examples herein and is expressed as percent inhibition relative to saline treated mice. Total, LDL- and HDL-cholesterol levels were measured by routine clinical analysis using an Olympus Clinical Analyzer (Olympus America Inc., Melville, N.Y.) and are presented in mg/dL. Results from saline-treated animals are shown for comparison. Intact oligonucleotide in liver tissue was measured by capillary gel electrophoresis and is presented as micrograms of oligonucleotide per gram of tissue.
(§3) The oligonucleotide treatments described in this example were duplicated to investigate the extent to which effects of ISIS 147764 persist following cessation of treatment. Mice were treated as described, and sacrificed 1, 2, 4, 6 and 8 weeks following the cessation of oligonucleotide treatment.

[5] = High fat fed mice (Example 51): intact oligonucleotide in liver tissue by capillary gel electrophoresis; assay type: in vivo, mouse; settings: 50 mg/kg i.p. twice weekly
Description: as §1, §2, §3

apolipoprotein B mRNA [6] = experiment: ob/ob mice (Example 50): apolipoprotein B mRNA levels in liver; assay type: in vivo, mouse; settings: liver, high fat high cholesterol diet, 50 mg/kg i.p. twice a week, six weeks
Description: (§4) Ob/ob mice receiving a high fat, high cholesterol diet (60% kcal fat supplemented with 0.15% cholesterol) were treated with one of several oligonucleotides to evaluate their effect on apolipoprotein B-related phenotypic endpoints in ob/ob mice. After overnight fasting, mice from each group were dosed intraperitoneally twice a week with 50 mg/kg of ISIS 147483 (SEQ ID NO: 79), or 147764 (SEQ ID NO: 109), or the controls ISIS 116847 (SEQ ID NO: 857), or 141923 (SEQ ID NO: 858), or saline for six weeks. At study termination and forty eight hours after the final injections, animals were sacrificed and evaluated for target mRNA levels in liver, cholesterol and triglyceride levels, liver enzyme levels, serum glucose levels, and PTEN levels.

[7] = ob/ob mice (Example 50): cholesterol, lipid, triglyceride, liver enzyme and glucose levels; assay type: in vivo, mouse; settings: high fat high cholesterol diet, 50 mg/kg i.p. twice a week, six weeks
Description: as §4

[8] = High fat fed mice (Example 51): total, LDL- and HDL-cholesterol levels; assay type: in vivo, mouse; settings: 50 mg/kg i.p. twice weekly
Description: as §1, §2, §3

PTEN = experiment: ob/ob mice (Example 50): PTEN levels; assay type: in vivo, mouse; settings: high fat high cholesterol diet, 50 mg/kg i.p. twice a week, six weeks
Description: as §4

[9] = high fat fed male C57Bl/6 mice, treatment period 1 week
[10] = high fat fed male C57Bl/6 mice, treatment period 2 weeks
[11] = high fat fed male C57Bl/6 mice, treatment period 4 weeks
[12] = high fat fed male C57Bl/6 mice, treatment period 6 weeks
[13] = high fat fed male C57Bl/6 mice, treatment period 2 days
[14] = high fat fed mice, 1 week after cessation of dosing
[15] = high fat fed mice, 2 weeks after cessation of dosing
[16] = high fat fed mice, 4 weeks after cessation of dosing
[17] = high fat fed mice, 6 weeks after cessation of dosing
[18] = high fat fed mice, 8 weeks after cessation of dosing

Substance: GCCTCAGTCTGCTTTACACC (gapmer: ten 2'-deoxy gap, five-nucleotide wings, wing chemistry not given here) [ISIS 326358]
- inhibition of apolipoprotein B mRNA expression [1]: in a dose- and time-dependent manner
- apolipoprotein B expression (immunoblot) (apolipoprotein B protein [2]): substantial reduction
- secretion of apolipoprotein B protein (ELISA) (apolipoprotein B protein [3]): decrease

Substance: 141923 (CCTTCCCTGAAGGTTCCTCC; listed as DNA, chemistry not given here) [compound 141923]
- % Inhibition apolipoprotein B mRNA (apolipoprotein B mRNA [4]; [9]): 4%
- % Inhibition apolipoprotein B mRNA (apolipoprotein B mRNA [4]; [10]): 7%
- % Inhibition apolipoprotein B mRNA (apolipoprotein B mRNA [4]; [11]): 0%
- % Inhibition apolipoprotein B mRNA (apolipoprotein B mRNA [4]; [12]): 0%
- % Inhibition apolipoprotein B mRNA (apolipoprotein B mRNA [4]; [13]): 9%
- % Inhibition apolipoprotein B mRNA (apolipoprotein B mRNA [4]; [14]): 15%
- % Inhibition apolipoprotein B mRNA (apolipoprotein B mRNA [4]; [15]): 2%
- % Inhibition apolipoprotein B mRNA (apolipoprotein B mRNA [4]; [16]): 7%
- % Inhibition apolipoprotein B mRNA (apolipoprotein B mRNA [4]; [17]): 11%
- % Inhibition apolipoprotein B mRNA (apolipoprotein B mRNA [4]; [18]): 7%
- Intact oligonucleotide [5, 9]: 61 µg/g
- Intact oligonucleotide [5, 10]: 152 µg/g
- Intact oligonucleotide [5, 11]: 261 µg/g
- Intact oligonucleotide [5, 12]: 631 µg/g
- Intact oligonucleotide [5, 13]: 58 µg/g
- Intact oligonucleotide [5, 14]: 297 µg/g
- Intact oligonucleotide [5, 15]: 250 µg/g
- Intact oligonucleotide [5, 16]: 207 µg/g
- Intact oligonucleotide [5, 17]: 212 µg/g
- Intact oligonucleotide [5, 18]: 128 µg/g
- mRNA % control ApoB (apolipoprotein B mRNA [6]): 100.0 % control
- Glucose [7]: 328.5 mg/dL
- Lipoproteins CHOL [7]: 646.3 mg/dL
- Lipoproteins TRIG [7]: 196.5 mg/dL
- Liver Enzymes ALT [7]: 701.7 IU/L
- Liver Enzymes AST [7]: 329.3 IU/L
- HDL-cholesterol [8, 9]: 116 mg/dL
- LDL-cholesterol [8, 9]: 27 mg/dL
- Total cholesterol [8, 9]: 146 mg/dL
- HDL-cholesterol [8, 10]: 122 mg/dL
- LDL-cholesterol [8, 10]: 27 mg/dL
- Total cholesterol [8, 10]: 152 mg/dL
- HDL-cholesterol [8, 11]: 128 mg/dL
- LDL-cholesterol [8, 11]: 38 mg/dL
- Total cholesterol [8, 11]: 169 mg/dL
- HDL-cholesterol [8, 12]: 166 mg/dL
- LDL-cholesterol [8, 12]: 56 mg/dL
- Total cholesterol [8, 12]: 225 mg/dL
- HDL-cholesterol [8, 13]: 70 mg/dL
- LDL-cholesterol [8, 13]: 8 mg/dL
- Total cholesterol [8, 13]: 99 mg/dL
- HDL-cholesterol [8, 14]: 121 mg/dL
- LDL-cholesterol [8, 14]: 24 mg/dL
- Total cholesterol [8, 14]: 158 mg/dL
- HDL-cholesterol [8, 15]: 105 mg/dL
- LDL-cholesterol [8, 15]: 24 mg/dL
- Total cholesterol [8, 15]: 139 mg/dL
- HDL-cholesterol [8, 16]: 135 mg/dL
- LDL-cholesterol [8, 16]: 32 mg/dL
- Total cholesterol [8, 16]: 185 mg/dL
- HDL-cholesterol [8, 17]: 136 mg/dL
- LDL-cholesterol [8, 17]: 32 mg/dL
- Total cholesterol [8, 17]: 186 mg/dL
- HDL-cholesterol [8, 18]: 108 mg/dL
- LDL-cholesterol [8, 18]: 24 mg/dL
- Total cholesterol [8, 18]: 151 mg/dL
- mRNA % control PTEN (PTEN): 113.6 % control
